Measured values as given in publication PMC4643908 (2015).

How the values were obtained:
[1] = system: Tebowned (RNA, riboswitch) GGACGAUUGAGGAUAUUUAGACAUAGAGAAGGCAAUGGAGAGAGAGCUUUUUAAAGAAACAACAACAACAAC; assay: chemical mapping; details: mapping pattern changes on FMN
[2] = system: V. vulnificus add adenine riboswitch (with expression platform segment) (RNA, riboswitch) GGGAACCGAGUAGGUUCGCUUCAUAUAAUCCUAAUGAUAUGGUUUGGGAGUUUCUACCAAGAGCCUUAAACUCUUGAUUAUGAAGUCUGUCGCUUUAUCCGAAAUUUUAUAAAGAGAAGACUCAUGAAUGGGAUCCGAGUAGGAUCCUGAAAAAAACAACAACAAC; assay: 1M7 SHAPE mutate-and-map chemical mapping; details: 50 mM KCl, 25 mM K3PO4, 10 mM MgCl2; pH 6.5; room temperature; 5 mM adenine; protections in aptamer

SMILES | binding [1] | binding [2]
Cc1cc2nc3c(=O)[nH]c(=O)nc-3n(C[C@H](O)[C@H](O)[C@H](O)COP(=O)(O)O)c2cc1C | yes | 
Nc1ncnc2[nH]cnc12 |  | yes
